ChEMBL document CHEMBL1201862, “PubChem BioAssay data set” (2004)
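Grown in 96-well plates, cells were treated for 48 hours with each compound at five concentrations. Insufficient inhibition: endpoint recorded as highest concentration tested. GI50 is the concentration that inhibits growth by half.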 Calls of active or inactive are those of the source. Cut-off read from the data, not from the text of the source: active = GI50 up to about 1.1 µM and inactive = higher.

How the values were obtained:
Experiment in all cases: inhibition of tumour cell growth, NCI panel, 48 h
IGROV-1 = test system: IGROV-1
SF-539 = test system: SF-539
U-251 = test system: U-251
SF-295 = test system: SF-295
PC-3 = test system: PC-3
SNB-19 = test system: SNB-19
EKVX = test system: EKVX
UACC-62 = test system: UACC-62
MDA-MB-231 = test system: MDA-MB-231
HOP-62 = test system: HOP-62
SK-MEL-28 = test system: SK-MEL-28
CAKI-1 = test system: CAKI-1
RPMI-8226 = test system: RPMI-8226
ACHN = test system: ACHN
SR = test system: SR
SK-MEL-2 = test system: SK-MEL-2
CCRF-CEM = test system: CCRF-CEM
HCT-15 = test system: HCT-15
SK-MEL-5 = test system: SK-MEL-5
HOP-92 = test system: HOP-92
MCF7 = test system: MCF7
NCI-H23 = test system: NCI-H23
Malme-3M = test system: Malme-3M
MDA-MB-435 = test system: MDA-MB-435
COLO 205 = test system: COLO 205
DU-145 = test system: DU-145
SW-620 = test system: SW-620
SN12C = test system: SN12C
NCI-H460 = test system: NCI-H460
HL-60 = test system: HL-60
SNB-75 = test system: SNB-75
TK-10 = test system: TK-10
786-0 = test system: 786-0
LOX IMVI = test system: LOX IMVI
OVCAR-4 = test system: OVCAR-4
RXF 393 = test system: RXF 393
NCI/ADR-RES = test system: NCI/ADR-RES
UACC-257 = test system: UACC-257
MOLT-4 = test system: MOLT-4
K562 = test system: K562
A498 = test system: A498
KM12 = test system: KM12
T47D = test system: T47D
OVCAR-5 = test system: OVCAR-5
SK-OV-3 = test system: SK-OV-3
MDA-N = test system: MDA-N
HCC 2998 = test system: HCC 2998
HT-29 = test system: HT-29
BT-549 = test system: BT-549
A549 = test system: A549
OVCAR-3 = test system: OVCAR-3
NCI-H522 = test system: NCI-H522
OVCAR-8 = test system: OVCAR-8
M14 = test system: M14
NCI-H226 = test system: NCI-H226
HCT-116 = test system: HCT-116
UO-31 = test system: UO-31
Hs-578T = test system: Hs-578T
SF-268 = test system: SF-268

Measured: GI50

Cn1c(-c2ccc(C=O)o2)ccc1-c1ccc(C=O)o1
inactive: IGROV-1 36.9 µM | SF-539 34.5 µM | U-251 40.7 µM | SF-295 58.7 µM | PC-3 39.4 µM | SNB-19 54.8 µM | EKVX 54.1 µM | UACC-62 74.1 µM | MDA-MB-231 38 µM | HOP-62 45.3 µM | SK-MEL-28 40.1 µM | CAKI-1 12.5 µM | RPMI-8226 57.1 µM | ACHN 31.7 µM | SR 30.9 µM | SK-MEL-2 > 100 µM | CCRF-CEM > 100 µM | SK-MEL-5 30.9 µM | HOP-92 36.6 µM | MCF7 28.8 µM | NCI-H23 45.7 µM | Malme-3M 31.7 µM | MDA-MB-435 38.6 µM | COLO 205 87.7 µM | DU-145 49.4 µM | SW-620 35.4 µM | SN12C 37.6 µM | NCI-H460 > 100 µM | HL-60 19.8 µM | SNB-75 39.5 µM | TK-10 > 100 µM | 786-0 61.1 µM | LOX IMVI 31.7 µM | OVCAR-4 53.1 µM | RXF 393 > 100 µM | NCI/ADR-RES 35.7 µM | UACC-257 51.4 µM | MOLT-4 24.8 µM | K562 35.5 µM | A498 > 100 µM | KM12 36.2 µM | T47D 26.1 µM | OVCAR-5 > 100 µM | SK-OV-3 > 100 µM | MDA-N 33.4 µM | HCC 2998 > 100 µM | HT-29 36.1 µM | BT-549 55.8 µM | A549 > 100 µM | OVCAR-3 26.2 µM | NCI-H522 1.68 µM | OVCAR-8 30.4 µM | M14 31 µM | NCI-H226 76.4 µM | HCT-116 18.4 µM | UO-31 35.3 µM
34 µM: HCT-15

CN(C)S(=O)(=O)Nc1nnc(S(N)(=O)=O)s1
inactive: IGROV-1 > 100 µM | SF-539 > 100 µM | U-251 > 100 µM | SF-295 > 100 µM | PC-3 > 100 µM | Hs-578T > 100 µM | SNB-19 > 100 µM | EKVX > 100 µM | UACC-62 > 100 µM | MDA-MB-231 > 100 µM | HOP-62 > 100 µM | SK-MEL-28 > 100 µM | CAKI-1 > 100 µM | RPMI-8226 > 100 µM | ACHN > 100 µM | SR > 100 µM | SK-MEL-2 > 100 µM | SK-MEL-5 > 100 µM | HOP-92 > 100 µM | MCF7 > 100 µM | NCI-H23 > 100 µM | Malme-3M > 100 µM | MDA-MB-435 > 100 µM | COLO 205 > 100 µM | DU-145 > 100 µM | SW-620 > 100 µM | SF-268 > 100 µM | NCI-H460 > 100 µM | HL-60 > 100 µM | SNB-75 > 100 µM | TK-10 > 100 µM | 786-0 > 100 µM | OVCAR-4 > 100 µM | RXF 393 > 100 µM | NCI/ADR-RES > 100 µM | MOLT-4 > 100 µM | K562 > 100 µM | A498 > 100 µM | KM12 > 100 µM | T47D 64.3 µM | OVCAR-5 > 100 µM | SK-OV-3 > 100 µM | HCC 2998 > 100 µM | HT-29 > 100 µM | BT-549 > 100 µM | A549 > 100 µM | OVCAR-3 > 100 µM | NCI-H522 > 100 µM | M14 > 100 µM | NCI-H226 > 100 µM | HCT-116 > 100 µM | UO-31 > 100 µM
> 100 µM: HCT-15
